Two molecules from US20040009949A1, “Method for treating autoimmune or inflammatory diseases with combinations of inhibitory oligonucleotides and small molecule antagonists of immunostimulatory CpG nucleic acids” (Coley Pharmaceutical Group, Inc., priority 2002, published 2004) can be followed below.

The data set concerns the target T1, human TLR9 (Homo sapiens, UniProt Q9NR96).
T1 construct: expressed in transfected cells
T1 sequence (Q9NR96 26-1032): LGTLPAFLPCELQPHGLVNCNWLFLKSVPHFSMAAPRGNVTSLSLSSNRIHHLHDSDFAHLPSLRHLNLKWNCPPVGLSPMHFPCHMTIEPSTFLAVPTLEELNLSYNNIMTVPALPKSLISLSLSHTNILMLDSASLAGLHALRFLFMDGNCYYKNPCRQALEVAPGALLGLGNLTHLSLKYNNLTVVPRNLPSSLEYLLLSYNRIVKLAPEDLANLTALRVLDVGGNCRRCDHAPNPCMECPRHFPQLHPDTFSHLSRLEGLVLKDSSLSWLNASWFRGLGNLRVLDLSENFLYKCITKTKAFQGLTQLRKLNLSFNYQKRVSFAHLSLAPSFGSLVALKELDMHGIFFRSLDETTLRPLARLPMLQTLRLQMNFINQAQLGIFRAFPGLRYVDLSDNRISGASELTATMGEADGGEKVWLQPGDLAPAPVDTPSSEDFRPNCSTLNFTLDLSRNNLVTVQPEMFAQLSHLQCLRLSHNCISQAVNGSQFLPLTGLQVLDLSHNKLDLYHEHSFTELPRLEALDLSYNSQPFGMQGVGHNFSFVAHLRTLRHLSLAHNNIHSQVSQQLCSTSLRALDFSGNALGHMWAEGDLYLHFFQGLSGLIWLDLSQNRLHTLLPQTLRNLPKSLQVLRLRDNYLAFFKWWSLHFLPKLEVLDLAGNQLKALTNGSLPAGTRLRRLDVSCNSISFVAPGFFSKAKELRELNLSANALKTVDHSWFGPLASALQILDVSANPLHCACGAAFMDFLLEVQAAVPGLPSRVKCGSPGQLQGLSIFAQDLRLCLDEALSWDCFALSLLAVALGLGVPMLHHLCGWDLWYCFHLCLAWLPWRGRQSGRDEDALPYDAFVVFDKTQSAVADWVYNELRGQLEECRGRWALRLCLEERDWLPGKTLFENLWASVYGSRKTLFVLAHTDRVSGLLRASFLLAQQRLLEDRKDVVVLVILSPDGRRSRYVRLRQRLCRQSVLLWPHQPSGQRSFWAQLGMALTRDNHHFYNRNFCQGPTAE
Briefly: NF-κB-luciferase activation of stably transfected 293-hTLR9-luc cells by CpG ODN 2006 in presence of inhibitory ODN 2088 and/or chloroquine. It is filed as cell-based. The note with it: as Table 1: ODN 2088 0.05 μM. On the procedure:
To generate stable clones expressing human TLR9, murine TLR9, or either TLR9 with the NF-κB-luc reporter plasmid, 293 cells were transfected in 10 cm plates (2×10^6 cells/plate) with 16 μg of DNA and selected with 0.7 mg/mL G418 (PAA Laboratories GmbH, Cölbe, Germany). The clones were also screened for IL-8 production or NF-κB-luciferase activity after stimulation with ODN. Four different types of clones were generated.
NF-κB activation was measured by determining luciferase activity of cells 16 h later. Results are given as fold induction above medium background.

As for `CCN(CC)CCCC(C)Nc1ccnc2cc(Cl)ccc12` (stereo not drawn) [Chloroquine, chloroquine], the “Fold increase of EC50 compared to ODN 2006 + TE” value reads like this: (chloroquine 0.039 μg/mL) 2.3 fold; (chloroquine 0.078 μg/mL) 2.6 fold; (chloroquine 0.3125 μg/mL) 3.6 fold.

As for “ODN 2088: inhibitory ODN, TCCTGGCGGGGAAGT, SEQ ID NO:7 (chemistry not given here)”, the “Fold increase of EC50 compared to ODN 2006 + TE” value reads like this: (chloroquine 0.039 μg/mL) 14.7 fold; (chloroquine 0.078 μg/mL) 4.2 fold; (chloroquine 0.3125 μg/mL) 8.0 fold.
